Test results: patent publication US20250382305A1 (PTC THERAPEUTICS, INC., priority 2022, published 2025)

Key:
ATXN3 pre-mRNA = assay: RT-qPCR Assay to Quantify Exon 4 Skipping in ATXN3 pre-mRNA in Cells; format: cell-based; conditions: percent exon 4 skipping in ATXN3 pre-mRNA, RT-qPCR of cell lysates; average IC50
How it was run: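 IC50 derives from a dose-response fit of percent exon 4 skipping, quantified by RT-qPCR on crude lysates. Compounds tested as 7-point 3.16-fold dilutions in duplicate; cells (10,000/well) were exposed for 24 h at 37 °C before lysis.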

[1] = system: Total ATXN3 (tATXN3) protein; assay: Endogenous Total ATXN3 (tATXN3) Protein Assay (MSD immunoassay of cell lysates); format: cell-based; conditions: average IC50, total ATXN3 protein in cell lysate after 48 h with compound (Table 1)
How it was run: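 By electrochemiluminescent MSD sandwich immunoassay (mouse monoclonal capture, rabbit monoclonal and SULFO-TAG anti-rabbit detection), endogenous ATXN3 was quantified in lysates of cells treated 48 h at 37° C at 10,000 cells/well. Treatment used a 7-point 3.16-fold duplicate dilution series, with average IC50 grouped into star categories.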

| Molecule | IC50 (ATXN3 pre-mRNA) | IC50 [1] |
| --- | --- | --- |
| N[C@@H]1CCC[C@H]1c1sc2c(NCc3cccs3)cc(Cl)nc2c1-c1ccccc1 [Compound 135, 2-((1R,2R)-2-aminocyclopentyl)-5-chloro-3-phenyl-N-(thiophen-2-ylmethyl)thieno[3,2-b]pyridin-7-amine] | > 1000 nM | > 1000 nM |
| N[C@@H]1CCCC[C@H]1c1cc2nc(Cl)cc(NCc3cccs3)c2s1 [Compound 23, 2-((1R,2R)-2-aminocyclohexyl)-5-chloro-N-(thiophen-2-ylmethyl)thieno[3,2-b]pyridin-7-amine] | > 1000 nM | > 1000 nM |
| N[C@H]1CCCO[C@@H]1c1sc2c(NCc3ccccc3)cc(Cl)nc2c1Br [Compound 108, 2-((2S,3S)-3-aminotetrahydro-2H-pyran-2-yl)-N-benzyl-3-bromo-5-chlorothieno[3,2-b]pyridin-7-amine] | ≤ 30 nM | ≤ 30 nM |
| N[C@@H]1CC=CC[C@H]1c1sc2c(NCc3cccs3)cc(Cl)nc2c1C#CCCCO.N[C@H]1CC=CC[C@@H]1c1sc2c(NCc3cccs3)cc(Cl)nc2c1C#CCCCO (mixture of isomers) [Compound 175, 5-(2-((1R,6R)-6-aminocyclohex-3-en-1-yl)-5-chloro-7-((thiophen-2-ylmethyl)amino)thieno[3,2-b]pyridin-3-yl)pent-4-yn-1-ol and 5-(2-((1S,6S)-6-aminocyclohex-3-en-1-yl)-5-chloro-7-((thiophen-2-ylmethyl)amino)thieno[3,2-b]pyridin-3-yl)pent-4-yn-1-ol] | ≤ 30 nM | ≤ 30 nM |
| N[C@@H]1CCCC[C@H]1c1c(Cl)c2nc(Cl)nc(NCc3ccccc3)c2n1C(F)F.N[C@H]1CCCC[C@@H]1c1c(Cl)c2nc(Cl)nc(NCc3ccccc3)c2n1C(F)F (mixture of isomers) [Compound 418, 6-((1S,2S)-2-aminocyclohexyl)-N-benzyl-2,7-dichloro-5-(difluoromethyl)-5H-pyrrolo[3,2-d]pyrimidin-4-amine and 6-((1R,2R)-2-aminocyclohexyl)-N-benzyl-2,7-dichloro-5-(difluoromethyl)-5H-pyrrolo[3,2-d]pyrimidin-4-amine] | 30 to 300 nM | 30 to 300 nM |
| C#Cc1c([C@@H]2CCCC[C@H]2N)sc2c(NCc3ccccc3F)cc(Cl)nc12 [Compound 430, 2-((1R,2R)-2-aminocyclohexyl)-5-chloro-3-ethynyl-N-(2-fluorobenzyl)thieno[3,2-b]pyridin-7-amine] | 30 to 300 nM | 30 to 300 nM |
| N[C@@H]1CCCO[C@@H]1c1sc2c(NCc3cccs3)cc(Cl)nc2c1Br [Compound 15, 2-((2S,3R)-3-aminotetrahydro-2H-pyran-2-yl)-3-bromo-5-chloro-N-(thiophen-2-ylmethyl)thieno[3,2-b]pyridin-7-amine] | 300 to 1000 nM | 300 to 1000 nM |
| N[C@@H]1CC=CC[C@H]1c1c(I)c2nc(Cl)nc(NCc3ccccc3)c2n1C(F)F [Compound 424, 6-((1R,6R)-6-aminocyclohex-3-en-1-yl)-N-benzyl-2-chloro-5-(difluoromethyl)-7-iodo-5H-pyrrolo[3,2-d]pyrimidin-4-amine] | ≤ 30 nM | 30 to 300 nM |
| 6-((2S,3S)-3-aminotetrahydro-2H-pyran-2-yl)-N-benzyl-2,7-dichloro-5-(difluoromethyl)-5H-pyrrolo[3,2-d]pyrimidin-4-amine and 6-((2R,3R)-3-aminotetrahydro-2H-pyran-2-yl)-N-benzyl-2,7-dichloro-5-(difluoromethyl)-5H-pyrrolo[3,2-d]pyrimidin-4-amine [Compound 392] | 30 to 300 nM | 300 to 1000 nM |
| 2-((2R,3R)-3-aminotetrahydro-2H-pyran-2-yl)-N-benzyl-5-chlorothieno[3,2-b]pyridin-7-amine and 2-((2S,3S)-3-aminotetrahydro-2H-pyran-2-yl)-N-benzyl-5-chlorothieno[3,2-b]pyridin-7-amine [Compound 26] | 300 to 1000 nM | 300 to 1000 nM |
| N[C@@H]1CCCO[C@H]1c1c(I)c2nc(Cl)nc(NCc3ccco3)c2n1C(F)F [Compound 422, 6-((2R,3R)-3-aminotetrahydro-2H-pyran-2-yl)-2-chloro-5-(difluoromethyl)-N-(furan-2-ylmethyl)-7-iodo-5H-pyrrolo[3,2-d]pyrimidin-4-amine] | 30 to 300 nM | 30 to 300 nM |
| [2H]C1=C([2H])C([2H])([2H])[C@@H](c2sc3c(NCc4ccco4)cc(Cl)nc3c2Cl)[C@H](N)C1([2H])[2H] [Compound 369, 2-((1R,6R)-6-aminocyclohex-3-en-1-yl-2,2,3,4,5,5-d6)-3,5-dichloro-N-(furan-2-ylmethyl)thieno[3,2-b]pyridin-7-amine] | 30 to 300 nM | 30 to 300 nM |
| N[C@@H]1CC=CC[C@H]1c1sc2c(NCc3ccco3)cc(Cl)nc2c1Cl [Compound 299, 2-((1R,6R)-6-aminocyclohex-3-en-1-yl)-3,5-dichloro-N-(furan-2-ylmethyl)thieno[3,2-b]pyridin-7-amine] | 30 to 300 nM | 30 to 300 nM |
| CC#CCNc1cc(Cl)nc2c(Br)c([C@H]3OCCC[C@@H]3N)sc12 [Compound 343, 2-((2S,3S)-3-aminotetrahydro-2H-pyran-2-yl)-3-bromo-N-(but-2-yn-1-yl)-5-chlorothieno[3,2-b]pyridin-7-amine] | 30 to 300 nM | 30 to 300 nM |
| N[C@@H]1COCC[C@H]1c1sc2c(NCc3ccco3)cc(Cl)nc2c1Cl [Compound 410, 2-((3S,4R)-3-aminotetrahydro-2H-pyran-4-yl)-3,5-dichloro-N-(furan-2-ylmethyl)thieno[3,2-b]pyridin-7-amine] | 30 to 300 nM | 30 to 300 nM |
| Cc1c([C@@H]2CC=CC[C@H]2N)sc2c(NCc3ccncc3F)nc(Cl)nc12 [Compound 435, 6-((1R,6R)-6-aminocyclohex-3-en-1-yl)-2-chloro-N-((3-fluoropyridin-4-yl)methyl)-7-methylthieno[3,2-d]pyrimidin-4-amine] | ≤ 30 nM | 30 to 300 nM |
| Cc1c([C@@]2(F)CCC[C@@H]2N)sc2c(NCc3ccco3)nc(Cl)nc12 [Compound 128, 6-((1R,2S)-2-amino-1-fluorocyclopentyl)-2-chloro-N-(furan-2-ylmethyl)-7-methylthieno[3,2-d]pyrimidin-4-amine] | > 1000 nM | > 1000 nM |
| N[C@@H]1CCCCCC[C@H]1c1sc2c(NCc3cccs3)cc(Cl)nc2c1Br [Compound 100, 2-((1R,2R)-2-aminocyclooctyl)-3-bromo-5-chloro-N-(thiophen-2-ylmethyl)thieno[3,2-b]pyridin-7-amine] | > 1000 nM | > 1000 nM |
| Cc1c([C@H]2CC=CC[C@@H]2N)sc2c(NCc3nccs3)nc(Cl)nc12 [Compound 223, 6-((1S,6S)-6-aminocyclohex-3-en-1-yl)-2-chloro-7-methyl-N-(thiazol-2-ylmethyl)thieno[3,2-d]pyrimidin-4-amine] | ≤ 30 nM | ≤ 30 nM |
| N[C@H]1CC=CC[C@@H]1c1sc2c(NCc3ccco3)cc(Cl)nc2c1Cl [Compound 169, 2-((1S,6S)-6-aminocyclohex-3-en-1-yl)-3,5-dichloro-N-(furan-2-ylmethyl)thieno[3,2-b]pyridin-7-amine] | ≤ 30 nM | ≤ 30 nM |
| CN(Cc1cccs1)c1cc(Cl)nc2c(C#CCCCO)c([C@@H]3CC=CC[C@H]3N)sc12 [Compound 451, 5-(2-((1R,6R)-6-aminocyclohex-3-en-1-yl)-5-chloro-7-(methyl(thiophen-2-ylmethyl)amino)thieno[3,2-b]pyridin-3-yl)pent-4-yn-1-ol] | 30 to 300 nM | 30 to 300 nM |
| 2-((2R,3R,5R)-3-amino-5-methyltetrahydro-2H-pyran-2-yl)-3-bromo-5-chloro-N-(thiophen-2-ylmethyl)thieno[3,2-b]pyridin-7-amine and 2-((2S,3S,5S)-3-amino-5-methyltetrahydro-2H-pyran-2-yl)-3-bromo-5-chloro-N-(thiophen-2-ylmethyl)thieno[3,2-b]pyridin-7-amine [Compound 284] | 30 to 300 nM | 30 to 300 nM |
| N[C@H]1CCCC[C@]1(F)c1sc2c(NCc3cccs3)cc(Cl)nc2c1Cl [Compound 32, 2-((1R,2S)-2-amino-1-fluorocyclohexyl)-3,5-dichloro-N-(thiophen-2-ylmethyl)thieno[3,2-b]pyridin-7-amine] | 30 to 300 nM | 30 to 300 nM |
| N[C@@H]1CCCO[C@H]1c1sc2c(NCc3ccccc3)cc(Cl)nc2c1Cl [Compound 156, 2-((2R,3R)-3-aminotetrahydro-2H-pyran-2-yl)-N-benzyl-3,5-dichlorothieno[3,2-b]pyridin-7-amine] | > 1000 nM | > 1000 nM |
| N[C@H]1CC=CC[C@@H]1c1sc2c(NCc3cccs3)cc(Cl)nc2c1C#CC[C@H](O)CO [Compound 216, (S)-5-(2-((1S,6S)-6-aminocyclohex-3-en-1-yl)-5-chloro-7-((thiophen-2-ylmethyl)amino)thieno[3,2-b]pyridin-3-yl)pent-4-yne-1,2-diol] | ≤ 30 nM | ≤ 30 nM |
| N[C@H]1CCCCCC[C@@H]1c1sc2c(NCc3cccs3)cc(Cl)nc2c1Cl [Compound 96, 2-((1S,2S)-2-aminocyclooctyl)-3,5-dichloro-N-(thiophen-2-ylmethyl)thieno[3,2-b]pyridin-7-amine] | 30 to 300 nM | 30 to 300 nM |
| N[C@@H]1CCCCC[C@H]1c1sc2c(NCc3cccs3)cc(Cl)nc2c1I [Compound 157, 2-((1R,2R)-2-aminocycloheptyl)-5-chloro-3-iodo-N-(thiophen-2-ylmethyl)thieno[3,2-b]pyridin-7-amine] | > 1000 nM | > 1000 nM |
| C#Cc1c([C@H]2CCCC[C@@H]2N)sc2c(NCc3ccco3)cc(Cl)nc12 [Compound 357, 2-((1S,2S)-2-aminocyclohexyl)-5-chloro-3-ethynyl-N-(furan-2-ylmethyl)thieno[3,2-b]pyridin-7-amine] | 30 to 300 nM | 30 to 300 nM |
